From patent US9526680B2, “Method for searching for malodor control agent, malodor control agent, and malodor control method” (Kao Corporation, priority 2010, dated 2016) come the findings set out here.

For one experiment, the target named is T1, OR2W1 (Homo sapiens, UniProt Q9Y3N9).
T1 construct: expressed in transfected cells; host or cells: HEK293
T1 sequence (Q9Y3N9 1-320): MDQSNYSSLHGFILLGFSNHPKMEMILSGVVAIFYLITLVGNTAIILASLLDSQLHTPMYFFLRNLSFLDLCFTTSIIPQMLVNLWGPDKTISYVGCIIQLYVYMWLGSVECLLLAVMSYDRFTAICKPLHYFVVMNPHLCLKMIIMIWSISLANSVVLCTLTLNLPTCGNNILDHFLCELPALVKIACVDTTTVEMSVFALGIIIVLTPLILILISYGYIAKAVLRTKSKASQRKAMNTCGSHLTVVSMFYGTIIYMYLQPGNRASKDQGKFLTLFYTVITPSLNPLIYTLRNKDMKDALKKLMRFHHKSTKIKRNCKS
The experiment can be described thus: Luciferase reporter gene assay, OR2W1 expressed in HEK293 cells. Format: cell-based. The settings on record: response to hexanoic acid; test substance added together with hexanoic acid; HEK293. The protocol: (§1) Cloning of human olfactory receptors was performed based on the sequence information registered in GenBank, through PCR with human genomic DNA female (G1521: Promega) as a template. Each of the genes amplified through PCR was inserted into a pENTR vector (Invitrogen) according to an instruction manual. Then, the gene-inserted vector was digested with NotI and AscI, and the obtained fragments were inserted into NotI and AscI sites located downstream of the Flag-Rho tag sequence in the pME18S vector.
(§2) Each of the 350 types of human olfactory receptors was expressed in HEK293 cells. A reaction solution having a composition shown in Table 2 was prepared on a clean bench, and left to stand for 15 minutes. The solution was dispensed to each well of a 96-well plate (BD). Subsequently, […] cells (100 μL, 3×10^5 cells/cm^2) were seeded in each well and cultured for 24 hours in an incubator at 37° C. and under 5% CO2 conditions.
(§3) The olfactory receptor expressed in HEK293 cell was conjugated with cell-intrinsic Gas to activate adenylate cyclase, and thereby the level of intracellular cAMP was increased. For the measurement of the response to odor in this study, the luciferase reporter gene assay was used, in which an increase in the amount of intracellular cAMP was monitored by using the emission value originating from firefly luciferase gene (fluc2P-CRE-hygro) as an indicator. Furthermore, a gene product obtained by fusing renilla luciferase gene in the downstream of CMV promoter (hRluc-CMV) was simultaneously introduced, and this was used as an internal standard for correcting an error in the transgenesis efficiency or the number of cells. The medium was removed from the culture prepared in the above-described section 3) by using a Pipetman, and 75 μl of a solution containing an odor substance (1 mM hexanoic acid or 300 μM nonanoic acid) prepared in CD293 medium (Invitrogen) was added thereto. The cells were cultured for 4 hours in a CO2 incubator, and the luciferase gene was sufficiently expressed in the cells. For the measurement of luciferase activity, the measurement was carried out by using a Dual-Glo™ luciferase assay system (Promega) according to the operation manual of the product. A value calculated by dividing the emission value, derived from a firefly luciferase induced by the stimulation with an odor substance, by the emission value in cells that were not-stimulated with an odor substance, was designated as a fold increase, and used as an index of response intensity.
(§4) OR2W1, OR10A6, OR51E1, OR51I2, and OR51L1 were respectively expressed in HEK293 cells by the same method as that used in Example 1, and a luciferase assay was carried out. In the luciferase assay, hexanoic acid was used as the odorous substance, and test substances were added together with hexanoic acid. The response of the olfactory receptors to hexanoic acid was measured, and a decrease in the receptor response to the addition of test substances was evaluated.
(§5) The inhibition ratios of the receptor response to test substances were calculated as follows. The emission value (Y) obtained from the cells in which the same receptors were introduced but no odor stimulation was conducted, was subtracted from the emission value derived from firefly luciferase (X) induced by odor stimulation with hexanoic acid alone. Similarly, the emission value (Y) obtained from the cells in which no odor stimulation was conducted, was subtracted from the emission value (Z) caused by stimulation with a mixture of hexanoic acid and a test substance. By the following calculation formula, the inhibitory activity of the test substance to receptor response was calculated based on the increment of the emission value (X−Y) caused by stimulation of hexanoic acid alone. Multiple independent experiments were performed in duplicate, and the average of each experiment was obtained. Inhibition ratio (%)={1−(Z−Y)/(X−Y)}×100 […]
(In general: Reporter assays use an easily measured gene product as a stand-in for the process of interest.)

Experiment [1] can be described thus: Sensory evaluation test of hexanoic acid odor inhibition. The settings on record: for Intensity of odor: hexanoic acid odor, malodor alone rated as 5, 0 to 10 points, test substance diluted 100 times with propylene glycol, three panelists; for Inhibition of hexanoic acid odor (in words): sensory test, test substance diluted 100 times with propylene glycol (FIG. 5, Table 4). Format: in vivo. As for the experimental part:
Cotton balls were introduced into a glass bottle (Hakuyo Glass Co., Ltd. No. 11, capacity 110 ml), and hexanoic acid diluted 100 times with propylene glycol, nonanoic acid diluted 10 times with propylene glycol, or isovaleric acid diluted 1000 times with propylene glycol, as a malodor, and a test substance were added dropwise in an amount of […] to the cotton balls. The glass bottle was left to stand overnight at room temperature, and the odor molecules were sufficiently volatilized in the glass bottle. A sensory evaluation test was carried out by a panel of three panelists (5 panelists for isovaleric acid), and while the intensity of odor in the case of adding dropwise the malodor alone was rated as 5, the intensity of the malodor in the case of incorporating a test substance was evaluated on the basis of a system of 20 grades from 0 point to 10 points (0.5 points per grade).
Regarding the test substance, florhydral (Givaudan SA), bourgeonal (Givaudan SA), hydroxycitronellal (Givaudan SA, International Flavors & Fragrances, Inc., and the like), 4-isopropylcyclohexanecarbaldehyde (synthesized according to a method described in JP-A-2-188549), 4-(2-methoxyphenyl)-2-methyl-2-butanol (JP-A-9-111281), florosa (Givaudan SA), isocyclocitral (Givaudan SA, International Flavors & Fragrances, Inc., and the like), tripral (International Flavors & Fragrances, Inc.), and Pollenal II (Kao Corp.), which had been diluted 100 times with propylene glycol, were used for hexanoic acid; florhydral that had been diluted 10 times with propylene glycol was used for nonanoic acid; and florhydral that had been diluted 1000 times with propylene glycol was used for isovaleric acid.

In a further experiment the target is T2, OR51I2 (Homo sapiens, UniProt Q9H344).
T2 construct: expressed in transfected cells; host or cells: HEK293
T2 sequence (Q9H344 1-312): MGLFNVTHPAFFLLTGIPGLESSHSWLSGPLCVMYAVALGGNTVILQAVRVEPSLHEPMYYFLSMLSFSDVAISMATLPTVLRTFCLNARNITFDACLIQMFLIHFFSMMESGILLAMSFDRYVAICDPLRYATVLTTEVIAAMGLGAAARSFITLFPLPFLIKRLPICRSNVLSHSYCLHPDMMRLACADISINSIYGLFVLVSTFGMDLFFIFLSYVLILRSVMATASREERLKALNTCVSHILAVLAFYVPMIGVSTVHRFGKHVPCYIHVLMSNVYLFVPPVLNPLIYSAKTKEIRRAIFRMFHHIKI
The experiment can be described thus: Luciferase reporter gene assay, OR51I2 expressed in HEK293 cells. The conditions noted are these: for Inhibition ratio of OR51I2 response: response to hexanoic acid, test substance added together with hexanoic acid, HEK293. The format is cell-based. As for the experimental part:
as §1, §2, §3, §4, §5

For another experiment, the target named is T3, OR51E1 (Homo sapiens, UniProt Q8TCB6).
T3 construct: expressed in transfected cells; host or cells: HEK293
T3 sequence (Q8TCB6 1-318): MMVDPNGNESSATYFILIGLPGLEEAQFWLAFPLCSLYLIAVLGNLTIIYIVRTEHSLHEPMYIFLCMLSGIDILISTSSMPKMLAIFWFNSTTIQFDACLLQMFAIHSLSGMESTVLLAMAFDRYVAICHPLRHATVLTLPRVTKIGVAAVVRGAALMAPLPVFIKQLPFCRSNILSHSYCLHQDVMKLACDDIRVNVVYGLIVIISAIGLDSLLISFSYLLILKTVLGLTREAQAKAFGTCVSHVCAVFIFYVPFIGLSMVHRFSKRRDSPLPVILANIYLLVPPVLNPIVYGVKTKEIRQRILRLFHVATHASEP
The experiment in a line: Luciferase reporter gene assay, OR51E1 expressed in HEK293 cells. The format is cell-based. The settings on record: for Inhibition ratio of OR51E1 response: response to hexanoic acid, test substance added together with hexanoic acid, HEK293. The protocol: as §1, §2, §3, §4, §5

For the next experiment, the target named is T4, OR51L1 (Homo sapiens, UniProt Q8NGJ5).
T4 construct: expressed in transfected cells; host or cells: HEK293
T4 sequence (Q8NGJ5 1-315): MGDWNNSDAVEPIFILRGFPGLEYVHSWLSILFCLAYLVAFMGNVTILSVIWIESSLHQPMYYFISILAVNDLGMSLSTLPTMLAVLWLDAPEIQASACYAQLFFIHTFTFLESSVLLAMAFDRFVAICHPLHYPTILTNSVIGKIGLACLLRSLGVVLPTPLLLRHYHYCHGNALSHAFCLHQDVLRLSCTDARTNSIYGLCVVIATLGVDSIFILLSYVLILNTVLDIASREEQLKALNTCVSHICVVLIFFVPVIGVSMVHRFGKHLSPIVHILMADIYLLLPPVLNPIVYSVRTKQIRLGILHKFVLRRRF
The experiment in a line: Luciferase reporter gene assay, OR51L1 expressed in HEK293 cells. Format: cell-based. The conditions noted are these: response to hexanoic acid; test substance added together with hexanoic acid; HEK293. As for the experimental part:
as §1, §2, §3, §4, §5

Setting [2] is: fold increase of luciferase emission, 1 mM hexanoic acid or 300 μM nonanoic acid, or concentration series up to 1000 μM.

Turning to `COc1ccccc1CCC(C)(C)O` [4-(2-Methoxyphenyl)-2-methyl-2-butanol, 4-(2-methoxyphenyl)-2-methyl-2-butanol], the “Inhibition ratio of OR2W1 response” value at OR2W1 was 1 (Inhibition ratio: 50% or higher). Besides, in experiment [1], the Intensity of odor is listed as 3.88 and the “Inhibition of hexanoic acid odor (in words)” value (“Inhibition … (in words)” for short) was “inhibit the hexanoic acid odor”.
As to `CC(C)C1CCC(C)(CO)CC1` (stereo not shown) [4-Isopropyl-1-methylcyclohexylmethanol, 4-isopropyl-1-methylcyclohexylmethanol], the “Inhibition ratio of OR51I2 response” value on OR51I2 was 2 (Inhibition ratio: 20% to 50%).
Take `CC(C)C1CCC(C=O)CC1` (stereo not shown) [4-Isopropylcyclohexanecarbaldehyde, 4-isopropylcyclohexanecarbaldehyde]: the “Inhibition ratio of OR51I2 response” value at OR51I2 is 2 (Inhibition ratio: 20% to 50%). Besides, in experiment [1], the Intensity of odor came to 2.17 and the “Inhibition … (in words)” value is on record as “inhibit the hexanoic acid odor”.
Consider `CC(C)=CCCC(C)CC=O` (stereo not shown) [Citronellal, 3,7-dimethyl-6-octenal], for which the “Inhibition ratio of OR51E1 response” value at OR51E1 is recorded as 2 (Inhibition ratio: 20% to 50%).
As for `CC(C)c1ccc(C=O)cc1` [Cuminaldehyde, 4-isopropylbenzaldehyde], at OR51I2, the “Inhibition ratio of OR51I2 response” value is on record as 2 (Inhibition ratio: 20% to 50%).
The same measure, in the same setting: under `CC(C=O)Cc1ccc(C(C)C)cc1` (stereo not shown) [Cyclamen aldehyde, 3-(4-isopropylphenyl)-2-methylpropanal] stands 2 (Inhibition ratio: 20% to 50%).
On to `CC1(C)CCCC2=C1CC(C=O)CC2` (stereo not shown) [Cyclemon A, 1,2,3,4,5,6,7,8-octahydro-8,8-dimethyl-2-naphthalenecarboxyaldehyde], for which, at OR2W1, the “Inhibition ratio of OR2W1 response” value was 1 (Inhibition ratio: 50% or higher).
For `CC(CC=O)CCCC(C)(C)O` (stereo not shown) [Hydroxycitronellal, 3,7-dimethyl-7-hydroxyoctanal], at OR51E1, the “Inhibition ratio of OR51E1 response” value is on record as 2 (Inhibition ratio: 20% to 50%). In addition, at OR51L1, the “Inhibition ratio of OR51L1 response” value was 2 (Inhibition ratio: 20% to 50%). Moreover, the “Inhibition ratio of OR51I2 response” value at OR51I2 is 2 (Inhibition ratio: 20% to 50%). In addition, in experiment [1], the Intensity of odor is 2.25 and the “Inhibition … (in words)” value is on record as “inhibit the hexanoic acid odor”.
Regarding `CC(C=O)Cc1ccc(C(C)(C)C)cc1` (stereo not drawn) [Lilial, p-tert-butyl-α-methylhydrocinnamaldehyde], at OR2W1, the “Inhibition ratio of OR2W1 response” value is given as 2 (Inhibition ratio: 20% to 50%). Further, the “Inhibition ratio of OR51I2 response” value on OR51I2 is 2 (Inhibition ratio: 20% to 50%).
On to `Cc1cccc(CC(C)(C)CO)c1` [Majantol, 2,2-dimethyl-3-(3-methylphenyl)propanol], for which the “Inhibition ratio of OR2W1 response” value on OR2W1 is given as 2 (Inhibition ratio: 20% to 50%).
Consider `COC(C)(C)CCCC(C)CC=O` (stereo not shown) [Methoxycitronellal, 7-methoxy-3,7-dimethyloctanal], for which the “Inhibition ratio of OR51E1 response” value at OR51E1 is listed as 1 (Inhibition ratio: 50% or higher). Further, at OR51L1, the “Inhibition ratio of OR51L1 response” value is 1 (Inhibition ratio: 50% or higher). Also, the “Inhibition ratio of OR51I2 response” value on OR51I2 is 1 (Inhibition ratio: 50% or higher).
Regarding `CC(C=O)C1CCCCC1` (stereo not shown) [Pollenal II, 2-cyclohexylpropanal], the “Inhibition ratio of OR51E1 response” value at OR51E1 is on record as 2 (Inhibition ratio: 20% to 50%). Moreover, in experiment [1], the Intensity of odor worked out at 2.08 and the “Inhibition … (in words)” value is recorded as “inhibit the hexanoic acid odor”.
Regarding `CC(C)Cc1ccc(CC(C)C=O)cc1` (stereo not shown) [Suzaral, 3-(4-isobutylphenyl)-2-methyl-propionaldehyde], the “Inhibition ratio of OR51I2 response” value at OR51I2 is recorded as 2 (Inhibition ratio: 20% to 50%).
`CC1=CC(C)C(C=O)CC1` (stereo not shown) [Tripral, 2,4-dimethyl-3-cyclohexane-1-carboxyaldehyde]: on OR51L1, the “Inhibition ratio of OR51L1 response” value is 2 (Inhibition ratio: 20% to 50%). Moreover, in experiment [1], the Intensity of odor stood at 2.00 and the “Inhibition … (in words)” value is listed as “inhibit the hexanoic acid odor”.
Take `CC(C)CC(=O)O` [isovaleric acid, reference compound]: the “Response of OR51E1 to the odor substance” value on OR51E1 (setting [2]) is “concentration-dependent response”. On OR51I2 (setting [2]), the “Response of OR51I2 to the odor substance” value is on record as “concentration-dependent response”.
